Format in all cases: in vivo
In assay [1] the test system is Spodoptera Littoralis (L3 stage larvae). Kind of assay: whole plant or invertebrate. Particulars: 168 h, read-out: LC50, Spodoptera. Here is the method:
L3 stage SPODOPTERA LITTORALIS larvae were used and the operation was carried out at 22° C. at relative humidity conditions of 50%. Petri dishes were used containing a damp circular piece of filter paper and in each dish, two bean plant leaves were placed and treated with hydroacetonic solution (50-50) containing the product under test. The dead larvae were counted at the end of 7 days and the concentration LC50 were expressed in ppm.

In another assay the test system is Plasmopara viticola. As to the kind of experiment: Fungicide activity: tests on Plasmopara viticola (vine plants, leaf spray). Conditions: 100 ppm of active material, relative to non-treated control; for % of effectiveness on plasmopara viticola, Grenache vine: ten days after contamination. As for the experimental part:
Young vine plants from cuttings (Grenache N variety, clone 70) were cultivated in a greenhouse (daytime temperature: 30° C., night-time temperature: 25° C.) on an earth/compost/sand mixture, (1/3-1/3-1/3). Two days before the test, the plants were moved into a culture chamber with the same temperature conditions and humidity 60% in the day, 80% at night. The product was dissolved in "matrix A" at a concentration of 100 ppm just before use. The treatment took place by spraying the solution on the leaves until saturation Contamination was carried out with a suspension of zoospores of Plasmopara viticola taken immediately before the test using 50,000 zoospores per ml. Drops of suspension (20 micro-liters) were deposited on the abaxial surface of the leaves. The plants were then kept for 24 hours in an atmosphere saturated with water-vapour. Then, the atmosphere was returned to the humidity of the culture chamber (60% in the day, 80% at night). The reading was taken ten days after contamination by measuring the development of clusters of sporangiophores on the abaxial surface of the leaves. The effectiveness of the product was calculated relative to a non-treated control. The same type of test was carried out on a Chardonnay vine.
The results obtained in % of effectiveness on plasmopara viticola at 100 ppm of active material were as follows: […]

The subject of another assay is Tetranychus Urticae. As to the kind of experiment: Acaricide study on Tetranychus Urticae. Particulars: 72 h, read-out: LC50, Tetranychus. Here is the method: Bean plants were used comprising 2 leaves infested with 30 females of Tetranychus Urticae per leaf and put under an aerated hood under a lighted ceiling which was constantly on. The plants were treated with a Fisher gun with 4 ml of toxic solution per plant of a mixture with an equal volume of water and acetone. After leaving to dry for half an hour the infestation was proceeded with and mortality checks were carried out at the end of 3 days. The LC50 dose was determined and the results are set out in the table below, taking account of the following values: […]

The subject of a further assay is Musca Domestica (Fly). Kind of assay: Insecticide activity: lethal effect on Musca Domestica (topical application). Particulars: 6-day-old female flies, topical application of acetone solution on dorsal thorax, 22° C. As for the experimental part: 6-day-old female flies weighing 18 to 20 mg were used and the operation was carried out at 22° C. at relative humidity conditions of 50%. The products were administered by topical application of an acetone solution of 1 g/l on the dorsal thorax of the insects. The LC50 dose was determined and was expressed in ppm.

A further assay relates to Aphis Cracivora. As to the kind of experiment: Insecticide activity: activity on Aphis Cracivora. Particulars: female apter on sprayed broad bean leaves, 24 hours. Here is the method: 2 ml of water acetone solution (50/50) was sprayed on broad bean leaves (vicia fabae) until the leaves were running with solution. After drying, 15 female apter of Aphis cracivora were deposited on the leaves and the mixture was kept on the damp filter paper inside a Petri dish. 24 hours after the start of contact, the number of dead insects was determined and the LC50 dose expressed in ppm were determined.

Where [2] appears, read: L3 larvae, contact and ingestion, treated bean leaves, 7 days, 22° C.
Setting [3] is: females on treated bean plants, 3 days.

16 molecules from patent publication US5182295A, “Insecticidal benzofuran derivatives” (Roussel Uclaf, priority 1990, dated 1993) can be followed below.

Structures are written as SMILES. Converted amounts (≈) assume the structure as drawn. Where two headings read alike, the source gives them in different places.

As usually defined, the LC50 is the concentration lethal to half of the exposed cells or organisms. With `CO/C=C(\C(=O)OC)c1cccc2cc(-c3ccc(OC)cc3)oc12` [1 (Z)], the LC50 in assay [1] (setting [2]) is 250 to 1000 µg/mL (≈ 739 to 2960 µM); in the assay with Tetranychus Urticae (setting [3]), < 250 µg/mL. For the same molecule, the “% of effectiveness on plasmopara viticola, Grenache vine” value (“% of effectiveness … Grenache vine” below) with Plasmopara viticola is given as 100%.
Consider `CO/C=C(/C(=O)OC)c1cccc2cc(-c3cccc(OC)c3)oc12` [2 (E)], for which, in the assay with Plasmopara viticola, the “% of effectiveness on plasmopara viticola, Chardonnay vine” value (“% of effectiveness … Chardonnay vine” for short) came to 100% and the “% of effectiveness … Grenache vine” value worked out at 100%.
Regarding `CO/C=C(/C(=O)OC)c1cccc2cc(-c3ccccc3)oc12` [3 (E)], the LC50 in assay [1] (setting [2]) was 250 to 1000 µg/mL (≈ 811 to 3240 µM).
The same measure, in the same setting: in the case of `CO/C=C(\C(=O)OC)c1cccc2cc(-c3ccccc3)oc12` [3 (Z)] it was 250 to 1000 µg/mL (≈ 811 to 3240 µM).
For the molecule `CO/C=C(/C(=O)OC)c1cccc2cc(-c3ccccc3Cl)oc12` [10 (E)], in the assay with Plasmopara viticola, the “% of effectiveness … Chardonnay vine” value came to 90% and the “% of effectiveness … Grenache vine” value came to 100%.
Turning to `CO/C=C(/C(=O)OC)c1cccc2cc(-c3ccc(Cl)cc3)oc12` [12 (E)], the 50% lethal concentration (LC50) with Musca Domestica (Fly) and in the assay with Tetranychus Urticae (setting [3]) was < 250 µg/mL in each case. Further, the “% of effectiveness … Chardonnay vine” value in the assay on Plasmopara viticola turned out to be 100%. For the same molecule, the “% of effectiveness … Grenache vine” value in the assay with Plasmopara viticola was found to be 100%.
As for `CO/C=C(/C(=O)OC)c1cccc2cc(-c3ccc(Br)c(C(F)(F)F)c3)oc12` [14 (E), Methyl α[(E)methoxymethylene1-2-4-bromo-3-(trifluoromethyl)-phenyl]benzofuran acetate], the figures for the LC50 (in the assay with Musca Domestica (Fly); in assay [1] (setting [2]); in the assay on Tetranychus Urticae (setting [3])) were < 250 µg/mL, 250 to 1000 µg/mL and < 250 µg/mL, respectively.
Regarding `CO/C=C(/C(=O)OC)c1cccc2cc(-c3ccc(Cl)c(OC)c3)oc12` [15 (E)], the LC50 with Musca Domestica (Fly) was < 250 µg/mL; in assay [1] (setting [2]), 250 to 1000 µg/mL (≈ 671 to 2680 µM); with Aphis Cracivora, < 250 µg/mL; in the assay with Tetranychus Urticae (setting [3]), 250 to 1000 µg/mL (≈ 671 to 2680 µM).
Turning to `CO/C=C(/C(=O)OC)c1cccc2cc(-c3csc(C(C)C)n3)oc12` [16 (E), Methyl α-(E)methoxymethylene1-7-[2-[4-(2-isopropylthiazolyl)-benzofuranyl]-acetate], in the assay with Tetranychus Urticae (setting [3]), the 50% lethal concentration (LC50) is < 250 µg/mL.
As for `CO/C=C(/C(=O)OC)c1cccc2cc(-c3ccc4c(c3)OCO4)oc12` [17 (E), Methyl α[(E)-methoxymethylene1-2-(3,4-methylenedioxy)-phenyl-7-benzofuran acetate], the LC50 (with Musca Domestica (Fly); in assay [1] (setting [2])) was < 250 µg/mL throughout.
For `CCCCc1cc2cccc(/C(=C\OC)C(=O)OC)c2o1` [18 (E), Methyl α[(E)-methoxymethylene1-2-butyl-7-benzofuran acetate], the LC50 in the assay on Aphis Cracivora and with Tetranychus Urticae (setting [3]) was < 250 µg/mL each time.
For `CO/C=C(/C(=O)OC)c1cccc2cc(-c3csc(-c4ccc(OC(F)(F)F)cc4)n3)oc12` [19 (E), Methyl α[(E)-methoxymethylene]-2-[2-[4-(trifluoromethyxy)-pehny]-4-thiazolyl]-7-benzofuran acette], in assay [1] (setting [2]), the LC50 is < 250 µg/mL.
Take `CO/C=C(/C(=O)OC)c1cccc2cc(-c3cccc(Oc4ccccc4)c3)oc12` [24 (E), Methyl α-[(E)-methoxymethylene]-2-(3-phenoxyphenyl) -7-benzofuran acetate]: the LC50 in the assay on Musca Domestica (Fly) is < 250 µg/mL.
Turning to `CO/C=C(/C(=O)OC)c1cccc2cc(-c3ccc(Oc4ccccc4)cc3)oc12` [25 (E), Methyl α-[(E)-methoxymethylene]-2-(4-phenoxyphenyl) -7-benzofuran acetate], the LC50 in the assay on Musca Domestica (Fly) was < 250 µg/mL.
Take `CO/C=C(/C(=O)OC)c1cccc2cc(-c3ccc(OC)cc3)oc12` [Example 1 (E), Methyl α-[(E)-methoxymethylene]-2-(4-methoxy-phenyl)-7-benzofuranacetate]: the values for the LC50 (in assay [1]; with Tetranychus Urticae) were 250 to 1000 µg/mL (≈ 739 to 2960 µM) and < 250 µg/mL, respectively. The “% of effectiveness … Grenache vine” value in the assay with Plasmopara viticola came out at 90%.
As for `CO/C=C(/C(=O)OC)c1cccc2cc(-c3cccc(Cl)c3)oc12` [Example 11 (E)], the LC50 in assay [1] (setting [2]) is 250 to 1000 µg/mL (≈ 729 to 2920 µM). For the same molecule, in the assay on Plasmopara viticola, the “% of effectiveness … Chardonnay vine” value was determined as 100% and the “% of effectiveness … Grenache vine” value is on record as 100%.
